Test results: paper PMC9141032 (International Journal of Molecular Sciences, 2022)
“And” between values parts separate entries of the source, which are not always exact repeats. Equal values may be shown once.

What was measured:
[1] = Chemical stability in buffers at pH 2, 5 and 7.4
SAMP8 murine model = settings: cited from earlier work
SH-SY5Y cells [2] = experiment: Protection of SH-SY5Y cells from 6-OHDA-induced death (MTT); settings: 6-OHDA 25 μM 16 h
primary microglial cells = experiment: Nitrite production (Griess) in LPS-treated primary microglia; settings: 1 μM 1 h, then LPS 10 μg/mL 24 h
culture cells = tested on: culture cells; parameters: method as in ref 32, 33 = [32]; 32. Escolano C. Pallás M. Griñán-Ferré C. Abás S. Callado L.-F. García-Sevilla J.A. Synthetic I 2 Imidazoline Receptor Ligands for Prevention or Treatment of Human Brain Disorders Patent WO 2019/12185 || [33]; PMID 32150414; doi:10.1021/acs.jmedchem.9b02080; 33. Abás S. Rodríguez-Arévalo S. Bagán A. Griñán-Ferré C. Vasilopoulou F. Brocos-Mosquera I. Muguruza C. Pérez B. Molins E. Luque F.J. Bicyclic α-Iminophosphonates as High Affinity Imidazoline I 2 Rec; settings: plethora of culture cells; cited from earlier work
adult rats = tested on: adult rats; parameters: method as in ref 33 = [33]; PMID 32150414; doi:10.1021/acs.jmedchem.9b02080; 33. Abás S. Rodríguez-Arévalo S. Bagán A. Griñán-Ferré C. Vasilopoulou F. Brocos-Mosquera I. Muguruza C. Pérez B. Molins E. Luque F.J. Bicyclic α-Iminophosphonates as High Affinity Imidazoline I 2 Rec; settings: 20 and 35 mg/kg intraperitoneally, 1 and 2 h postinjection; cited from earlier work
mice = experiment: Toxicity observation during the PK study; format: in vivo, mouse; settings: single dose 10 mg/kg intraperitoneally
Protocol: Thus, two-month-old mice were treated with a single dose of 10 mg/kg intraperitoneally in ten groups (n = 3), for consecutive times: 0, 5, 15, 30 min and 1, 2, 4, 6, 8, 24 h. After treatment, mice were euthanized, and the plasma and brain were collected.

primary astrocytes = experiment: Nitrite production (Griess) in LPS-treated primary astrocytes; settings: 1 μM 1 h, then LPS 10 μg/mL 24 h
SH-SY5Y cells [3] = experiment: Cytotoxicity in SH-SY5Y cells (MTT); settings: 24 h, 0.2 to 20 μM
[4] = In vivo pharmacokinetics in plasma; parameters: species or system mouse
Protocol: After treatment, mice were euthanized, and the plasma and brain were collected.
Male CD1 mice were supplied by the Laboratory Animal Service of the University of Granada (Granada, Spain) and housed in the Animal Facilities of the Center of Biomedical Investigation of the University of Granada. […] Calculations were performed using noncompartmental analysis of plasma data after intraperitoneal injection by means of PK Solver 2.0.
Basic PK parameters were calculated.

SH-SY5Y cells [5] = experiment: Active caspase 3 in 6-OHDA-treated SH-SY5Y cells (immunodetection, Western blot); settings: 1 μM, 16 h after 6-OHDA
[6] = parameters: method as in ref 32, 33 = [32]; 32. Escolano C. Pallás M. Griñán-Ferré C. Abás S. Callado L.-F. García-Sevilla J.A. Synthetic I 2 Imidazoline Receptor Ligands for Prevention or Treatment of Human Brain Disorders Patent WO 2019/12185 || [33]; PMID 32150414; doi:10.1021/acs.jmedchem.9b02080; 33. Abás S. Rodríguez-Arévalo S. Bagán A. Griñán-Ferré C. Vasilopoulou F. Brocos-Mosquera I. Muguruza C. Pérez B. Molins E. Luque F.J. Bicyclic α-Iminophosphonates as High Affinity Imidazoline I 2 Rec; settings: cited from earlier work
5xFAD murine model = tested on: 5xFAD murine model; parameters: method as in ref 32, 33 = [32]; 32. Escolano C. Pallás M. Griñán-Ferré C. Abás S. Callado L.-F. García-Sevilla J.A. Synthetic I 2 Imidazoline Receptor Ligands for Prevention or Treatment of Human Brain Disorders Patent WO 2019/12185 || [33]; PMID 32150414; doi:10.1021/acs.jmedchem.9b02080; 33. Abás S. Rodríguez-Arévalo S. Bagán A. Griñán-Ferré C. Vasilopoulou F. Brocos-Mosquera I. Muguruza C. Pérez B. Molins E. Luque F.J. Bicyclic α-Iminophosphonates as High Affinity Imidazoline I 2 Rec; settings: 5 mg/kg in drinking water, 4 weeks; cited from earlier work
[7] = male, CD1, mouse, ip, plasma, mice, 10 mg/kg intraperitoneal
[8] = plasma, mice, 10 mg/kg intraperitoneal

## CCOP(=O)(OCC)[C@]1(c2ccccc2)N=C[C@H]2C(=O)N(c3ccc(F)c(Cl)c3)C(=O)[C@H]21 (racemic) [B06, diethyl (1RS,3aSR,6aSR)-5-(3-chloro-4-fluorophenyl)-4,6-dioxo-1-phenyl-1,3a,4,5,6,6a-hexahydropyrrolo[3,4-c]pyrrole-1-phosphonate]
[1]; pH 2, 37 °C, 0 min
  % B06 Remaining: 100 ± 8.84%
[1]; pH 2, 37 °C, 5 min
  % B06 Remaining: 104 ± 9.81%
[1]; pH 2, 37 °C, 15 min
  % B06 Remaining: 98 ± 11.30%
[1]; pH 2, 37 °C, 30 min
  % B06 Remaining: 106 ± 9.97%
[1]; pH 2, 37 °C, 60 min
  % B06 Remaining: 112 ± 11.2%
[1]; pH 2, 37 °C, 120 min
  % B06 Remaining: 96 ± 13.6%
[1]; pH 2, up to 120 min
  chemical stability: stable at pH 2
[1]; pH 5
  chemical stability: stable up to 1 h
[1]; pH 5, 37 °C, 0 min
  % B06 Remaining: 100 ± 3.3%
[1]; pH 5, 37 °C, 5 min
  % B06 Remaining: 97 ± 6.5%
[1]; pH 5, 37 °C, 15 min
  % B06 Remaining: 100 ± 3.9%
[1]; pH 5, 37 °C, 30 min
  % B06 Remaining: 87 ± 11.3%
[1]; pH 5, 37 °C, 60 min
  % B06 Remaining: 98 ± 10.1%
[1]; pH 5, 37 °C, 120 min
  % B06 Remaining: 75 ± 8.5%
[1]; pH 5, between 1 h and 2 h
  % of the compound that suffered structural changes: 25%
[1]; pH 7.4, 37 °C, 0 min
  % B06 Remaining: 100 ± 2.9%
[1]; pH 7.4, 37 °C, 15 min
  % B06 Remaining: 77 ± 3.8%
[1]; pH 7.4, 37 °C, 30 min
  % B06 Remaining: 75% and 75 ± 5.6%
[1]; pH 7.4, 37 °C, 60 min
  % B06 Remaining: 53 ± 6.4%
[1]; pH 7.4, 37 °C, 120 min
  % B06 Remaining: 19% and 19 ± 1.9%
[1]; pH 7.4, 15 min
  % of the compound transformed: 25%
SAMP8 murine model
  effect on cognition and behaviour: improving cognition and ameliorating anxiety-like behaviour
SH-SY5Y cells [2]; 1 μM, 1 h pre-treatment
  protection from 6-OHDA-induced cell death: significantly rescued human dopaminergic cells from 6-OHDA-induced apoptosis
SH-SY5Y cells [2]; dose-response, MTT
  lowest concentration at which the most beneficial effect was obtained: 1 µM
Primary microglial cells
  effect on nitrite production: significant decrease in nitrite production
Culture cells
  cytotoxicity: devoid of cytotoxicity
Adult rats
  effect on body temperature: hypothermia
mice
  toxicity in organs or tissues, de visu observation after euthanasia: no toxicity in organs or tissues
mice; up to 24 h
  toxicity in the animals: not toxicity in any of the animals
Primary astrocytes
  effect on nitrite production: significant decrease in nitrite production
SH-SY5Y cells [3]
  cytotoxic effect on cell cultures (MTT): None of the concentrations used were cytotoxic
[4]; [7]
  AUC(0-inf): 3050 ng·h/mL
  Tmax: 0.25 h
[4]; male, CD1, mouse, ip, plasma, mice, 10 mg/kg intraperitoneal, single dose
  Cmax: 950 ± 624 ng/mL
[4]; male, CD1, mouse, ip, plasma, mice, 10 mg/kg intraperitoneal, read-out: AUC0–1440 (converted)
  AUC(0-t): 2950 ng·h/mL
[4]; male, CD1, mouse, plasma, ip, 10 mg/kg, mice, 10 mg/kg intraperitoneal
  half-life: 5.21 h
[4]; [8]
  Cl (plasma clearance): 0.054 ± 0.011 (mg/kg)/(μg/mL)
  Vz (volume of distribution): 24.56 ± 4.74 (mg/kg)/(μg/mL)
[4]; plasma, mice, 10 mg/kg intraperitoneal, 10 mg/kg
  t1/2: 5.2135 h
[4]; single dose intraperitoneally
  maximum mean concentration in plasma as % of the drug administered: ≤ 1%
SH-SY5Y cells [5]
  effect on 6-OHDA-induced increase of cells expressing active caspase 3: this effect was reversed by the treatment with B06
[6]
  Pe value in PAMPA (BBB permeation): well above the threshold established for high BBB permeation
5xFAD murine model
  effect on cognition: improving cognition and ameliorating the neurodegenerative condition
